Source: patent US20120010296A1, “TREATING VARIOUS DISORDERS WITH CATECHOL-O-METHYL-TRANSFERASE INHIBITORS” (priority 2009, published 2012)

Experiments:
Assay type in all cases: in vivo, human
kleptomania = assay: Example 3: case report, treatment of kleptomania (K-SAS, stealing behavior); settings: one patient
Description: Patient was a married, college-educated person with no children. They presented for psychiatric evaluation for “out-of-control” shoplifting that had been going on since early adulthood. Although never arrested for their shoplifting, they reported stealing approximately 90% of the times when they went shopping. […] They denied wanting or needing the items and in fact usually discarded them in the trash when they returned home. They reported that when they initially stole items in early adulthood the act gave them a “rush” or a thrill. Over the years, they described the behavior as “automatic” and without awareness for the consequences.
The diagnosis of kleptomania was confirmed using the Structured Clinical Interview for Kleptomania. Patient also underwent a comprehensive psychiatric evaluation using the Structured Clinical Interview for DSM-IV (SCID-I and SCID-II). […] Severity of kleptomania was assessed using the Kleptomania Symptom Assessment Scale (K-SAS) at baseline and periodically through […] follow-up. The K-SAS score at baseline was 28 (moderate severity).
(§1) Over a period of two years, patient underwent serial trials of several medications. […] “I have gone to stores several times without stealing anything.” After 6 weeks, the benefit seemed to wane and their dose was increased to 100 mg po bid. […] They have been maintained on that dose for 5 months without stealing. They report mild urges to steal when in a store but feels able to control their behavior. Patient's K-SAS score has consistently been 6-8 over the last few months.

pathological gambling [1] = assay: Example 2: performance on cognitive tasks (IDED, SST) in pathological gamblers treated with tolcapone
Description: The cognitive tasks require subjects to disengage responding from the previously correct dimension in favor of responding to a novel dimension. Failure on the ED task may be due to the inability of the individual to disengage from a previously rewarding process thus perseverating on the incorrect response pattern.

pathological gambling [2] = assay: Example 1 / Tolcapone Study: cognitive tasks (IED set shift, SST) before and after treatment
Description: The cognitive tasks require subjects to disengage responding from the previously correct dimension in favor of responding to a novel dimension. Failure on the task may be due to the inability of the individual to disengage from a previously rewarding process thus perseverating on the incorrect response pattern.

[3] = test system: nicotine dependent problem gambling subjects; assay: Change in cigarette smoking in nicotine dependent problem gambling subjects taking tolcapone; settings: 10-Week Endpoint (n = 6); baseline 25.8 ± 11.1
pathological gambling [4] = assay: Example 2: tolcapone study in pathological gambling, primary and secondary measures
Description: The effectiveness of COMT inhibitors to treat PG can be determined using known assessments, e.g., the Clinical Global Impression Scale (CGI), Yale Brown Obsessive Compulsive Scale Modified for Pathological Gambling (PG-YBOCS), the Gambling Symptom Assessment Scale (G-SAS), the Sheehan Disability Scale (SDS), the Hamilton Anxiety Rating Scale (HAM-A), the Hamilton Depression Rating Scale (HAM-D), the Perceived Stress Scale (PSS; used at baseline and study endpoint), and the Quality of Life Inventory (QOLI; used at baseline and study endpoint). In Example 2, twelve subjects have been enrolled with four of these individuals currently receiving tolcapone and yet to complete the study. […] In most open-label studies of pathological gambling, response rates are approximately 60-65%. Decrease in gambling symptoms was from a mean of 20.4 to 9.25 at endpoint using the PG-YBOCS. This compares to a mean decrease of 6 points on this same scale when used in treatment studies involving other medications.

pathological gambling [5] = assay: Example 1: open-label tolcapone study in pathological gambling (PG-YBOCS)
Description: The effectiveness of COMT inhibitors to treat PG can be determined using known assessments, e.g., the Clinical Global Impression Scale (CGI), Yale Brown Obsessive Compulsive Scale Modified for Pathological Gambling (PG-YBOCS), the Gambling Symptom Assessment Scale (G-SAS), the Sheehan Disability Scale (SDS), the Hamilton Anxiety Rating Scale (HAM-A), the Hamilton Depression Rating Scale (HAM-D), the Perceived Stress Scale (PSS; used at baseline and study endpoint), and the Quality of Life Inventory (QOLI; used at baseline and study endpoint). In example 1, six subjects have been enrolled in a study to determine the effects of administration of the COMT inhibitor tolcapone on gambling. Subjects receive 100 mg-300 mg of tolcapone by mouth per day for 8 weeks, which can be administered either once per day for the 100 mg dose, or multiple (e.g., 3) times per day for higher doses (e.g., 300 mg dose). Five of the 6 (83%) subjects have “responded” (i.e., greater than 35% on the primary outcome measure, the PG-YBOCS) to tolcapone. In most open-label studies of pathological gambling, response rates are approximately 65%. Decrease in gambling symptoms was from a mean of 20.4 to 8.0 at endpoint using the PG-YBOCS. This compares to a mean decrease of 6 points on this same scale when used in treatment studies involving other medications. The mean effective dose was 140 mg/day.

[6] = test system: attention deficit disorder (ADD); assay: Example 4: case report, treatment of ADD; settings: one patient
Description: Patient was a married, person, currently in nursing school. They have had life-long difficulties with organizing tasks, following through on instructions and completing tasks. Learning in classes and performing school work has been extremely difficult. Patient would tell each and every teacher that they have attention deficit disorder (ADD), they are slow to understand and that they need more time to complete examinations. Patient has been taking methylphenidate ([…]) 10 mg twice a day to cope with these difficulties. […] Patient said “I was able to answer 12 out of 12 questions, that was the first time for me.” After one week, patient increased tolcapone does to 100 mg twice a day. […] They found themself organizing future tasks in orderly manner and also completing the tasks mush more efficiently, something they just have not been able to do prior to now. Their spouse noticed this and commented this to them. […] Patient is much satisfied with the results of the tolcapone treatment. Follow-up interview two weeks post tolcapone 100 mg twice a day: “I got over my classes at 3:[…]/ I stayed '[…] just fired off this assignment. I met all objectives. I got 15 out of 15 points. This has never happened to me before. Prior to tolcapone, I would scramble, hodge-podge, . . . I would just give up. The whole thing is getting better and better. I feel that I can organize things better now.” “Look what my teacher wrote, 'very well organized'.” 30 out of 30, 27 out of 27 points! “I never got these assignments done. I can't explain it but this is phenomenal.” “I am sleeping better now, my anxiety has gone down, I have more energy now.” This is a patient who had been on methylphenidate 10 mg twice a day.

[7] = Example 3: laboratory testing of liver aminotransferases every two weeks; settings: one patient
Description: as §1

Compound: CC1(C)O[C@@H]2[C@@H](CO[C@@]3(COS(N)(=O)=O)OC(C)(C)O[C@@H]23)O1 [Topiramate, topiramate]
- K-SAS score (urges to steal) (kleptomania; monotherapy, 12 weeks at 150 mg/day, baseline 28): 21

Compound: Cc1ccc(C(=O)c2cc(O)c(O)c([N+](=O)[O-])c2)cc1 [tolcapone]
- extradimensional set shift task (cognitive measures) (pathological gambling [1]; Example 2, neurocognitive results): significant improvement
- SST directional errors at endpoint (pathological gambling [1]; endpoint, baseline 2 ± 3.07): 4.71 ± 8.24
- IDED Stages completed at endpoint (pathological gambling [1]; endpoint, baseline 8.5 ± 0.92): 8.86 ± 0.38
- IDED total errors (adjusted) at endpoint (pathological gambling [1]; endpoint, baseline 26.38 ± 21.84): 20.14 ± 11.77
- SST SSRT at endpoint (pathological gambling [1]; endpoint, baseline 149.8 ± 41.57): 161.37 ± 29.11
- SST median go reaction time at endpoint (pathological gambling [1]; endpoint, baseline 470.5 ± 111.67, in ms (unit assumed)): 476.64 ± 138.11
- IED Total errors (stage 6), ID shift, Mean ± SD at EOS (pathological gambling [2]; EOS, baseline 0.5 ± 1): 0 ± 0
- SST Direction errors on stop and go trials, Mean ± SD at EOS (pathological gambling [2]; EOS, baseline 2.75 ± 4.27): 6.5 ± 11.03
- IED Total errors (stage 8), ED shift, Mean ± SD at EOS (pathological gambling [2]; EOS, baseline 6.75 ± 5.91): 3.5 ± 4.51
- IED Stages completed, Mean ± SD at EOS (pathological gambling [2]; EOS, baseline 9 ± 0): 9 ± 0
- IED Total errors (adjusted), Mean ± SD at EOS (pathological gambling [2]; EOS, baseline 12.75 ± 6.5): 17 ± 7.16
- IED Total errors, Mean ± SD at EOS (pathological gambling [2]; EOS, baseline 12.75 ± 6.5): 17 ± 7.16
- SST Median correct RT on GO trials, Mean ± SD at EOS (pathological gambling [2]; EOS, baseline 530.5 ± 132.91): 529 ± 155.66
- extradimensional set shift task (cognitive measures) (pathological gambling [2]; Example 1): significant improvement
- Cigarettes smoked per day (mean ± SD) [3]: 3.3 ± 8.2
- mean effective dose (pathological gambling [4]; Example 2, pathological gambling, compared to 600 mg/day used for Parkinson's): 141 mg/day
- PG-YBOCS mean at endpoint (decrease in gambling symptoms) (pathological gambling [4]; Example 2, from a baseline mean of 20.4): 9.25
- subjects who responded (greater than 35% on the primary outcome measure, the PG-YBOCS) (pathological gambling [4]; Example 2, seven of 8 subjects who have completed the study): 87.5%
- CGI-Improvement (Investigator), mean (SD) at endpoint (pathological gambling [4]; endpoint): 1.88 (0.83)
- CGI-Improvement (Patient), mean (SD) at endpoint (pathological gambling [4]; endpoint): 2.19 (1.13)
- Clinical Global Impression Severity, mean (SD) at endpoint (pathological gambling [4]; endpoint, baseline 4.38 (0.74), p-value 0.0098): 3 (1.07)
- HAM-A, mean (SD) at endpoint (pathological gambling [4]; endpoint, baseline 8.88 (3.14), p-value 0.052): 5.63 (2.97)
- HAM-D, mean (SD) at endpoint (pathological gambling [4]; endpoint, baseline 9 (2.67), p-value 0.033): 5.63 (3.02)
- PG-YBOCS behavior Subscale score, mean (SD) at endpoint (pathological gambling [4]; endpoint, baseline 9.63 (3.2), p-value 0.0003): 3.63 (3.96)
- PG-YBOCS urges/thought subscale score, mean (SD) at endpoint (pathological gambling [4]; endpoint, baseline 10.88 (2.23), p-value 0.0003): 5.38 (2.33)
- Sheehan Disability Scale total score, mean (SD) at endpoint (pathological gambling [4]; endpoint, baseline 16.75 (6.84), p-value 0.003): 5.38 (5.90)
- PG-YBOCS total score, mean (SD) at endpoint (pathological gambling [4]; endpoint, baseline 20.5 (3.38), p-value 0.0002): 9.25 (5.3)
- G-SAS total score, mean (SD) at endpoint (pathological gambling [4]; endpoint, baseline 27.13 (7.54), p-value 0.045): 18.63 (7.91)
- stealing behavior (kleptomania; 100 mg po bid, after 3 weeks on the higher dose, maintained for 5 months without stealing): no stealing behavior
- K-SAS score (kleptomania; 100 mg po bid, over the last few months, baseline 28 (moderate severity)): 6-8
- stealing behavior (kleptomania; 100 mg/day monotherapy, after 3 weeks): significant reductions in stealing behavior
- mean effective dose (pathological gambling [5]; Example 1, pathological gambling): 140 mg/day
- subjects who responded (greater than 35% on the primary outcome measure, the PG-YBOCS) (pathological gambling [5]; Example 1, 100 mg-300 mg per day by mouth for 8 weeks, five of the 6 subjects): 83%
- PG-YBOCS mean at endpoint (decrease in gambling symptoms) (pathological gambling [5]; Example 1, from a baseline mean of 20.4): 8.0
- PG-YBOCS, Mean ± SD at EOS (pathological gambling [5]; whole group analysis, after treatment (EOS), baseline 21.5 + 3.11): 10.25 ± 6.18
- ADD symptoms reported by the patient ([6]; 100 mg in the morning, added to methylphenidate 10 mg twice a day): improved sense of well-being
- ADD symptoms reported by the patient ([6]; 100 mg twice a day): further improvement in their symptoms
- side effects ([6]; 100 mg twice a day): no side effects
- attentional issues, compared with methylphenidate ([6]; chose to stay on tolcapone instead of methylphenidate): works better for their attentional issues
- changes in alanine aminotransferase or aspartate aminotranferase [7]: no changes
